Measured values as given in patent US6525001B1, “Substituted pyrimidine and pyridine herbicides” (Mid-American Commercialization Corporation, priority 1997, dated 2003).

Legend:
Assay type in all cases: in vivo
[1] = system: bedstraw (Galium aparine); experiment: Test B pre-/postemergence; set-up: key: 0 is no effect; 10 is complete control; details: for Bedstraw plant response rating: Preemergence
Method in brief: (§1)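 Scored visually 0 (none) to 10 (complete control) against untreated plants after twelve to sixteen greenhouse days. Test chemicals, formulated in surfactant-containing non-phytotoxic solvent, applied to soil after planting and, separately, onto 1- to 4-leaf (2–18 cm) plants.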

[2] = system: blackgrass (Alopecurus myosuroides); experiment: Test B pre-/postemergence; set-up: key: 0 is no effect; 10 is complete control; details: for Blackgrass plant response rating: Preemergence
Method in brief: as §1

[3] = system: broadleaf signalgrass (Brachiaria decumbens); experiment: Test B pre-/postemergence; set-up: key: 0 is no effect; 10 is complete control; details: for B. signalgrass plant response rating: Preemergence
Method in brief: as §1

[4] = system: cocklebur (Xanthium strumarium); experiment: Test B pre-/postemergence; set-up: key: 0 is no effect; 10 is complete control; details: for Cocklebur plant response rating: Preemergence
Method in brief: as §1

corn (Zea mays) = experiment: Test B pre-/postemergence; set-up: key: 0 is no effect; 10 is complete control; details: for Corn plant response rating: Preemergence
Method in brief: as §1

[5] = system: crabgrass (Digitaria sanguinalis); experiment: Test B pre-/postemergence; set-up: key: 0 is no effect; 10 is complete control; details: for Crabgrass plant response rating: Preemergence
Method in brief: as §1

[6] = system: giant foxtail (Setaria faberii); experiment: Test B pre-/postemergence; set-up: key: 0 is no effect; 10 is complete control
Method in brief: as §1

[7] = system: momingglory (Ipomoea hederacea); experiment: Test B pre-/postemergence; set-up: key: 0 is no effect; 10 is complete control
Method in brief: as §1

[8] = system: pigweed (Amaranthus retroflexus); experiment: Test B pre-/postemergence; set-up: key: 0 is no effect; 10 is complete control
Method in brief: as §1

[9] = system: purple nutsedge (Cyperus rotundus); experiment: Test B pre-/postemergence; set-up: key: 0 is no effect; 10 is complete control; details: Postemergence
Method in brief: as §1

rape (Brassica napus) = experiment: Test B pre-/postemergence; set-up: key: 0 is no effect; 10 is complete control
Method in brief: as §1

soybean (Glycine max) = experiment: Test B pre-/postemergence; set-up: key: 0 is no effect; 10 is complete control
Method in brief: as §1

[10] = system: sugar beet (Beta vulgaris); experiment: Test B pre-/postemergence; set-up: key: 0 is no effect; 10 is complete control
Method in brief: as §1

[11] = system: velvetleaf (Abutilon theophrasti); experiment: Test B pre-/postemergence; set-up: key: 0 is no effect; 10 is complete control
Method in brief: as §1

[12] = system: wheat (Triticum aestivum); experiment: Test B pre-/postemergence; set-up: key: 0 is no effect; 10 is complete control
Method in brief: as §1

wild oat (Avena fatua) = experiment: Test B pre-/postemergence; set-up: key: 0 is no effect; 10 is complete control
Method in brief: as §1

[13] = system: bamyardgrass (Echinochloa crus-galli); experiment: Test B flood test
Method in brief: (§2)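 Flood test on plants grown to the 2-leaf stage; treated plants kept in greenhouse twelve to sixteen days, then visually rated against controls on a 0 (no effect) to 10 (complete control) scale.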

[14] = system: duck salad (Heteranthera limosa); experiment: Test B flood test
Method in brief: as §2

rice (Oryza sativa) = experiment: Test B flood test
Method in brief: as §2

[15] = system: smallflower flatsedge (Cyperus difformis); experiment: Test B flood test
Method in brief: as §2

[16] = Rate 250 g/ha, Postemergence (so in the source)
[17] = Rate 62 g/ha, Postemergence (flood test)
[18] = Rate 125 g/ha, Postemergence, flood test
[19] = Rate 250 g/ha, Postemergence (flood test species)
[20] = Rate 125 g/ha, Postemergence section (flood test species)

CCc1cnc(-n2cnc(C(F)(F)F)n2)nc1Cc1cccc(OC(F)(F)F)c1 [Compound 50]
Plant response rating, Bedstraw ([1]; Rate 62 g/ha, Postemergence): 9 | Bedstraw plant response rating ([1]; Rate 62 g/ha): 2 | Plant response rating, Bedstraw ([1]; Rate 125 g/ha, Postemergence): 10 | Bedstraw plant response rating ([1]; Rate 125 g/ha): 7 | Plant response rating, Bedstraw [1, 16]: 9 | Plant response rating, Blackgrass ([2]; Rate 62 g/ha, Postemergence): 2 | Blackgrass plant response rating ([2]; Rate 62 g/ha): 3 | Plant response rating, Blackgrass ([2]; Rate 125 g/ha, Postemergence): 5 | Blackgrass plant response rating ([2]; Rate 125 g/ha): 5 | Plant response rating, Blackgrass ([2]; Rate 250 g/ha, Postemergence): 8 | Plant response rating, Blackgrass [2, 16]: 10 | Plant response rating, B. signalgrass ([3]; Rate 62 g/ha, Postemergence): 1 | B. signalgrass plant response rating ([3]; Rate 62 g/ha): 0 | Plant response rating, B. signalgrass ([3]; Rate 125 g/ha, Postemergence): 1 | B. signalgrass plant response rating ([3]; Rate 125 g/ha): 1 | Plant response rating, B. signalgrass ([3]; Rate 250 g/ha, Postemergence): 2 | Plant response rating, B. signalgrass ([3]; Rate 250 g/ha, Postemergence as printed in head r139 (second section for compounds 26-50)): 1 | Plant response rating, Cocklebur ([4]; Rate 62 g/ha, Postemergence): 4 | Cocklebur plant response rating ([4]; Rate 62 g/ha): 0 | Plant response rating, Cocklebur ([4]; Rate 125 g/ha, Postemergence): 4 | Cocklebur plant response rating ([4]; Rate 125 g/ha): 0 | Plant response rating, Cocklebur ([4]; Rate 250 g/ha, Postemergence): 7 | Plant response rating, Cocklebur [4, 16]: 0 | Plant response rating, Corn (corn (Zea mays); Rate 62 g/ha, Postemergence): 1 | Corn plant response rating (corn (Zea mays); Rate 62 g/ha): 0 | Plant response rating, Corn (corn (Zea mays); Rate 125 g/ha, Postemergence): 2 | Corn plant response rating (corn (Zea mays); Rate 125 g/ha): 0 | Plant response rating, Corn (corn (Zea mays); Rate 250 g/ha, Postemergence): 2 | Plant response rating, Corn (corn (Zea mays); [16]): 0 | Plant response rating, Crabgrass ([5]; Rate 62 g/ha, Postemergence): 1 | Crabgrass plant response rating ([5]; Rate 62 g/ha): 6 | Plant response rating, Crabgrass ([5]; Rate 125 g/ha, Postemergence): 2 | Crabgrass plant response rating ([5]; Rate 125 g/ha): 9 | Plant response rating, Crabgrass ([5]; Rate 250 g/ha, Postemergence): 6 | Plant response rating, Crabgrass [5, 16]: 9 | Plant response rating, Giant foxtail ([6]; Rate 62 g/ha, Postemergence): 1 | Giant foxtail plant response rating ([6]; Rate 62 g/ha, Preemergence): 2 | Giant foxtail plant response rating ([6]; Rate 125 g/ha, Postemergence): 2 | Giant foxtail plant response rating ([6]; Rate 125 g/ha, Preemergence): 7 | Plant response rating, Giant foxtail ([6]; Rate 250 g/ha, Postemergence): 2 | Plant response rating, Giant foxtail [6, 16]: 8 | Plant response rating, Morningglory ([7]; Rate 62 g/ha, Postemergence): 3 | Morningglory plant response rating ([7]; Rate 62 g/ha, Preemergence): 1 | Morningglory plant response rating ([7]; Rate 125 g/ha, Postemergence): 3 | Morningglory plant response rating ([7]; Rate 125 g/ha, Preemergence): 3 | Plant response rating, Morningglory ([7]; Rate 250 g/ha, Postemergence): 3 | Plant response rating, Morningglory [7, 16]: 4 | Plant response rating, Redroot pigweed ([8]; Rate 62 g/ha, Postemergence): 8 | Redroot pigweed plant response rating ([8]; Rate 62 g/ha, Preemergence): 7 | Redroot pigweed plant response rating ([8]; Rate 125 g/ha, Postemergence): 8 | Redroot pigweed plant response rating ([8]; Rate 125 g/ha, Preemergence): 9 | Plant response rating, Redroot pigweed ([8]; Rate 250 g/ha, Postemergence): 9 | Plant response rating, Redroot pigweed [8, 16]: 9 | Plant response rating, Nutsedge ([9]; Rate 62 g/ha): 2 | Nutsedge plant response rating ([9]; Rate 125 g/ha): 2 | Plant response rating, Nutsedge ([9]; Rate 250 g/ha): 2 | Plant response rating, Rape (rape (Brassica napus); Rate 62 g/ha, Postemergence): 9 | Rape plant response rating (rape (Brassica napus); Rate 62 g/ha, Preemergence): 6 | Rape plant response rating (rape (Brassica napus); Rate 125 g/ha, Postemergence): 10 | Rape plant response rating (rape (Brassica napus); Rate 125 g/ha, Preemergence): 10 | Plant response rating, Rape (rape (Brassica napus); Rate 250 g/ha, Postemergence): 10 | Plant response rating, Rape (rape (Brassica napus); [16]): 10 | Plant response rating, Soybean (soybean (Glycine max); Rate 62 g/ha, Postemergence): 6 | Soybean plant response rating (soybean (Glycine max); Rate 62 g/ha, Preemergence): 1 | Soybean plant response rating (soybean (Glycine max); Rate 125 g/ha, Postemergence): 7 | Plant response rating, Soybean (soybean (Glycine max); Rate 125 g/ha, Preemergence): 1 | Plant response rating, Soybean (soybean (Glycine max); Rate 250 g/ha, Postemergence): 7 | Plant response rating, Soybean (soybean (Glycine max); [16]): 1 | Plant response rating, Sugarbeets ([10]; Rate 62 g/ha, Postemergence): 7 | Sugarbeets plant response rating ([10]; Rate 62 g/ha, Preemergence): 6 | Sugarbeets plant response rating ([10]; Rate 125 g/ha, Postemergence): 8 | Plant response rating, Sugarbeets ([10]; Rate 125 g/ha, Preemergence): 6 | Plant response rating, Sugarbeets ([10]; Rate 250 g/ha, Postemergence): 10 | Plant response rating, Sugarbeets [10, 16]: 10 | Plant response rating, Velvetleaf ([11]; Rate 62 g/ha, Postemergence): 6 | Velvetleaf plant response rating ([11]; Rate 62 g/ha, Preemergence): 4 | Velvetleaf plant response rating ([11]; Rate 125 g/ha, Postemergence): 7 | Plant response rating, Velvetleaf ([11]; Rate 125 g/ha, Preemergence): 7 | Plant response rating, Velvetleaf ([11]; Rate 250 g/ha, Postemergence): 8 | Plant response rating, Velvetleaf [11, 16]: 9 | Wheat plant response rating ([12]; Rate 62 g/ha, Postemergence): 3 | Wheat plant response rating ([12]; Rate 62 g/ha, Preemergence): 1 | Wheat plant response rating ([12]; Rate 125 g/ha, Postemergence): 3 | Plant response rating, Wheat ([12]; Rate 125 g/ha, Preemergence): 2 | Plant response rating, Wheat ([12]; Rate 250 g/ha, Postemergence): 4 | Plant response rating, Wheat [12, 16]: 2 | Wild oats plant response rating (wild oat (Avena fatua); Rate 62 g/ha, Postemergence): 2 | Wild oats plant response rating (wild oat (Avena fatua); Rate 62 g/ha, Preemergence): 3 | Wild oats plant response rating (wild oat (Avena fatua); Rate 125 g/ha, Postemergence): 3 | Plant response rating, Wild oats (wild oat (Avena fatua); Rate 125 g/ha, Preemergence): 4 | Plant response rating, Wild oats (wild oat (Avena fatua); Rate 250 g/ha, Postemergence): 4 | Plant response rating, Wild oats (wild oat (Avena fatua); [16]): 8 | Plant response rating, Barnyardgrass [13, 17]: 3 | Plant response rating, Barnyardgrass [13, 18]: 4 | Plant response rating, Barnyardgrass [13, 19]: 4 | Plant response rating, Ducksalad [14, 17]: 4 | Plant response rating, Ducksalad [14, 18]: 5 | Plant response rating, Ducksalad [14, 19]: 8 | Plant response rating, Rice (rice (Oryza sativa); [17]): 2 | Rice plant response rating (rice (Oryza sativa); [20]): 3 | Plant response rating, Rice (rice (Oryza sativa); [19]): 4 | Plant response rating, S. Flatsedge [15, 17]: 6 | S. Flatsedge plant response rating [15, 20]: 8 | Plant response rating, S. Flatsedge [15, 19]: 9
